This is an account of results in patent US6472408B1, “Dimeric compounds” (priority 2000, dated 2002).

Structures are written as SMILES. Counter-ions that a name gives are not always drawn. Like-named read-outs stand apart in the source and are kept apart here.

The target of test [1] is T1, BChE (Rattus norvegicus, UniProt Q9JKC1).
T1 construct: Rat serum was obtained by centrifugation of blood; from tissue; host or cells: rat serum
The test is described as follows: biochemical. Conditions: for IC50: rat serum. The procedure:
(§1) AChE and BChE enzyme preparations were prepared from cortex and serum respectively of decapitated rats. Frontal cortex (brain dissected on ice) was homogenized in sodium phosphate buffer (39 vol. 75 mM, pH 7.4). Rat serum was obtained by centrifugation of blood (3500×g, 10 min.). The cholinesterase assays were performed using the cloroimetric method of Ellman, with minor modification. […] A mixture of 4 mL containing acetylthiocholine iodide (0.3 mM) or butrylthiocholine iodide (0.4 mM), I mL sodium phosphate buffer ([…], pH 7.4), a solution of the compound being tested (0.1 mL), and homogenate or serum (0.1 mL) was incubated at 37° C. for 8 minutes. The reaction was terminated by the addition of sodium dodecyl sulfate (3% w/v, 1 mL), after which the 5,5′-dithiobis-(2-nitrobenzoic acid) indicator (0.2% w/v, 1 mL) was added. Enzyme activity was determined by measuring the absorbance at 420 nm after 10 minutes, relative to the drug-free control.

In test [2] the target is T2, AChE (Rattus norvegicus, UniProt P37136).
T2 construct: Frontal cortex (brain dissected on ice) was homogenized in sodium phosphate buffer; from tissue; host or cells: rat frontal cortex homogenate
T2 sequence (P37136 32-614): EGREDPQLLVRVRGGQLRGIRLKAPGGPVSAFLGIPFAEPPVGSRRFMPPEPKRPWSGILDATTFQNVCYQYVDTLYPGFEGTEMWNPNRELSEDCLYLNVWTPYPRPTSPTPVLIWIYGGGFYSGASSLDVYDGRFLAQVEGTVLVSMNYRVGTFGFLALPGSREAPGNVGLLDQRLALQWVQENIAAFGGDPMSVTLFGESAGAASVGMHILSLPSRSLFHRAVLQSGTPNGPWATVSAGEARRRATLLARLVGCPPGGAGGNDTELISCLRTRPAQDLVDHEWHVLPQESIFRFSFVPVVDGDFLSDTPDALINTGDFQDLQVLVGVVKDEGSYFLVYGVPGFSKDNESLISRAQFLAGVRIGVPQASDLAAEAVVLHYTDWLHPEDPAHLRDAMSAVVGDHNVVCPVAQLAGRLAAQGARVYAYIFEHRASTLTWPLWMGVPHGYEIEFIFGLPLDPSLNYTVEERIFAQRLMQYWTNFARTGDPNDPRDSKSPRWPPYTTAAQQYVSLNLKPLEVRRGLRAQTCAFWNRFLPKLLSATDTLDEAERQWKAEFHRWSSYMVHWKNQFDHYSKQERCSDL
The test is described as follows: biochemical. Conditions: for Selectivity for AChE: IC50(BChE)/IC50(AChE). The protocol:
as §1, with “Rat” for “AChE and BChE enzyme preparations were prepared from cortex and serum respectively of decapitated rats. Frontal cortex (brain dissected on ice) was homogenized in sodium phosphate buffer (39 vol. 75 mM, pH 7.4). Rat”

The mark [3] stands for this setting: Table III, in the presence of BW284c51, drugs 13 assayed as hydrochloride salts.
Setting [4] is: Table II, rat cortex homogenate, in the presence of ethopropazine as a specific BChE inhibitor, drugs assayed as hydrochloride or fumaric acid salts, read-out: AchE IC50.
The mark [5] stands for this setting: Table II, in the presence of BW284c51 as a specific AChE inhibitor, drugs assayed as salts.
Setting [6] is: at 0.5 mM, the highest drug concentration tested.
The mark [7] stands for this setting: Table III, rat cornea homogenate, in the presence of ethopropazine, drugs 13 assayed as hydrochloride salts, read-out: AChE IC50.

T1 sequence (Q9JKC1 24-597): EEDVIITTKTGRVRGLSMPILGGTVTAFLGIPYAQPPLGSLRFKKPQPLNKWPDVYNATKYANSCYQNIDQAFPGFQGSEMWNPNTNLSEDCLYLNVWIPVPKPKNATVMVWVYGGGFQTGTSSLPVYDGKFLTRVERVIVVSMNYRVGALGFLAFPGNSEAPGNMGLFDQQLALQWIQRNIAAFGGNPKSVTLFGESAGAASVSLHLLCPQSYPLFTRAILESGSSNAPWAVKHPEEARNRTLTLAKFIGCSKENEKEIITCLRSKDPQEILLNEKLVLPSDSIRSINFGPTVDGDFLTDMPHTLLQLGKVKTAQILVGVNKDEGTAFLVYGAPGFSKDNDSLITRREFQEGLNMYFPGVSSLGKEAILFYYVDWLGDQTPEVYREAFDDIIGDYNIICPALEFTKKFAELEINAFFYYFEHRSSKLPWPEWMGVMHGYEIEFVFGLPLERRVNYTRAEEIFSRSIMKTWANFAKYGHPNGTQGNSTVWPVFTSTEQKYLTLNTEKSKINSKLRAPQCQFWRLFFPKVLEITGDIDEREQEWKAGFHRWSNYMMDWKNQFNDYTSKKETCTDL

Regarding `O=c1ccc2c([nH]1)CCC[C@@H]2NCCCCCCCCCCCCN[C@H]1CCCc2[nH]c(=O)ccc21` [(S,S)-(−)-13i, (S,S)-(−)-N,N′-di-5′-(5′,6′,7′,8′-Tetrahydroquinolin-2-onyl)-1,12-diaminododecane, bis-Hydrochloride Salt], the IC50 in test [1] (setting [3]) amounted to 9.6 µM.

Take `Cn1c2c(ccc1=O)C(NCCCCCCCCCCNC1CCCc3c1ccc(=O)n3C)CCC2` (racemic) [rac-lmeso-15g, rac/meso-N,N′-di-5′-(5′,6′,7′,8′-Tetrahydro-1′-methyl-quinolinolyl)-1,10-diaminodecane, bis-Fumaric Acid]: in test [2] (Table II), the “Selectivity for AChE” value came out at 180. Moreover, in test [2] (setting [4]), the IC50 came out at 0.438 ± 0.029 µM.

Consider `O=c1ccc2c([nH]1)CCCC2NCCCCCCCCCNC1CCCc2[nH]c(=O)ccc21` (racemic) [rac-lmeso-13f], for which, in test [2] (Table II), the “Selectivity for AChE” value is 30.3. Further, in test [2] (setting [4]), the IC50 amounted to 0.356 ± 0.007 µM.

On to `O=c1ccc2c([nH]1)CCC[C@@H]2NCCCCCCCCCCN[C@H]1CCCc2[nH]c(=O)ccc21` [(S,S)-(−)-13g], for which the IC50 in test [1] (setting [3]) is 1.82 µM.

On to `CC1(C)Cc2[nH]c(=O)ccc2C(NCCCCCCCNC2CC(C)(C)Cc3[nH]c(=O)ccc32)C1` (racemic) [rac-lmeso-14d, rac-/meso-N,N′-Di-5′-(7′,7′-Dimethyl-5′,6′,7′,8′-tetrahydroquinolin-2-onyl)-1,7-diaminoheptane, bis-Fumaric Acid Salt], for which the IC50 in test [1] (setting [5]) is 190 µM; in test [2] (setting [4]) it was 18.3 µM. Moreover, in test [2] (Table II), the “Selectivity for AChE” value is 10.

In the case of `O=c1ccc2c([nH]1)CCC[C@H]2NCCCCCCCCCCCCN[C@@H]1CCCc2[nH]c(=O)ccc21` [(R,R)-(+)-13i], the IC50 in test [1] (setting [3]) is 297 µM.

Take `O=c1ccc2c([nH]1)CCCC2NCCCCCNC1CCCc2[nH]c(=O)ccc21` (racemic) [rac-lmeso-13b]: the “Selectivity for AChE” value in test [2] (Table II) turned out to be 9.1. In addition, the IC50 in test [2] (setting [4]) is 10.5 µM.

For `CCCCNC1CCCc2[nH]c(=O)ccc21` (racemic) [(±)-16, 5-n-Butylamino-5,6,7,8-tetrahydroquinolinone, bis-Hydrochloride, reference compound], the IC50 in test [1] (setting [5]) and in test [2] was ~500 µM throughout. In addition, the inhibition at 500 µM in test [1] (setting [6]) and in test [2] (setting [6]) was ~50% each time. Also, in test [2] (Table II), the “Selectivity for AChE” value is “·1”.

With `O=c1ccc2c([nH]1)CCCC2NCCCCCCCCNC1CCCc2[nH]c(=O)ccc21` (racemic) [rac-lmeso-13e], the figures for the IC50 in test [1] (setting [5]) and in test [2] (setting [4]) were 10.2 µM and 1.17 µM, respectively. Moreover, in test [2] (Table II), the “Selectivity for AChE” value turned out to be 8.7.

For `O=c1ccc2c([nH]1)CCC[C@@H]2NCCCCCCCCCCCCCN[C@H]1CCCc2[nH]c(=O)ccc21` [(S,S)-(−)-13j], the IC50 in test [1] (setting [3]) was 16.7 µM; in test [2] (setting [7]), 0.052 ± 0.009 µM. The “Selectivity for AChE” value in test [2] (Table III) was determined as 321.

For `CC1(C)Cc2[nH]c(=O)ccc2C(NCCCCCCCCCCNC2CC(C)(C)Cc3[nH]c(=O)ccc32)C1` (racemic) [rac-lmeso-14g], in test [2] (Table II), the “Selectivity for AChE” value is 17. The IC50 in test [2] (setting [4]) was determined as 6.11 µM.

`COc1ccc2c(n1)CCCC2NCCCCCCCCCCCCNC1CCCc2nc(OC)ccc21` (racemic) [rac-lmeso-17i]: the IC50 in test [1] (setting [5]) was found to be 78.9 µM; in test [2] (setting [4]), 5 µM. In test [2], the “fold increase in AChE IC50 relative to rac-/meso-13i” value is listed as 31 fold. The “Selectivity for AChE” value in test [2] (Table II) came to 15.8.

For `O=c1ccc2c([nH]1)CCC[C@@H]2NCCCCCCCCCCCN[C@H]1CCCc2[nH]c(=O)ccc21` [(S,S)-(−)-13h], the half-inhibitory concentration (IC50) in test [1] (setting [3]) was 1.16 µM; in test [2] (setting [7]), 0.084 ± 0.005 µM. The “Selectivity for AChE” value in test [2] (Table III) turned out to be 13.8.

Regarding `O=c1ccc2c([nH]1)CCCC2NCCCCCCCCCCNC1CCCc2[nH]c(=O)ccc21` (racemic) [rac-lmeso-13g], the IC50 in test [1] (setting [5]) came to 5.45 µM.

Take `O=c1ccc2c([nH]1)CCC[C@@H]2NCCCCCCCCCCCCCCN[C@H]1CCCc2[nH]c(=O)ccc21` [(S,S)-(−)-13k]: the IC50 in test [1] (setting [3]) came out at 59.5 µM; in test [2] (setting [7]), 0.24 ± 0.05 µM. The “Selectivity for AChE” value in test [2] (Table III) was 248.

In the case of `CC1(C)Cc2[nH]c(=O)ccc2C(NCCCCCCCCCCCCNC2CC(C)(C)Cc3[nH]c(=O)ccc32)C1` (racemic) [rac-lmeso-14i], in test [2] (Table II), the “Selectivity for AChE” value is 17. Besides, the IC50 in test [2] (setting [4]) came to 3.62 µM.

With `CC1(NCCCCCCCCCCNC2(C)CCCc3[nH]c(=O)ccc32)CCCc2[nH]c(=O)ccc21` (racemic) [rac-lmeso-19g, rac-/meso-N,N′-di-5′-(5′,6′,7′,8′-Tetrahydro-5′-methylquinolinonyl)-1,10-diaminodecane, Fumaric Acid Salt], the “fold less potent than 13 g” value in test [2] (AChE potency) amounted to 8 fold. The “Selectivity for AChE” value in test [2] (Table II) came out at 6.6. In addition, in test [2] (setting [4]), the IC50 is 1.86 µM.

Regarding `O=c1ccc2c([nH]1)CCCC2NCCCCCCCNC1CCCc2[nH]c(=O)ccc21` (racemic) [rac-lmeso-13d, rac-/meso-N′,N′-Di-5′-(5′,6′,7′,8′-Tetrahydroquinolin-2-onyl)-1,7-diaminoheptane, bis-Hydrochloride Salt], the IC50 in test [1] (setting [5]) stood at 34.6 µM; in test [2] (setting [4]), 1.24 µM. Moreover, the “Selectivity for AChE” value in test [2] (Table II) is recorded as 28.0.

Take `COc1ccc2c(n1)CCCC2NCCCCCCCCCCNC1CCCc2nc(OC)ccc21` (racemic) [rac-lmeso-17g, rac-/meso-N,N′-di-5′-(5′,6′,7′,8′-Tetrahydro-2′-methoxy-quinolinyl)-1,10-diaminodecane, bis-Fumaric Acid]: the IC50 in test [1] (setting [5]) was 34.6 µM; in test [2] (setting [4]), 4.53 µM. The “Selectivity for AChE” value in test [2] (Table II) came out at 7.6.

Consider `O=c1ccc2c([nH]1)CCCC2NCCCCNC1CCCc2[nH]c(=O)ccc21` (racemic) [rac-lmeso-13a], for which the IC50 in test [1] (setting [5]) came to 115 µM; in test [2] (setting [4]), 42.3 µM. Besides, the “Selectivity for AChE” value in test [2] (Table II) came to 2.7.

Take `O=c1ccc2c([nH]1)CCCC2NCCCCCCNC1CCCc2[nH]c(=O)ccc21` (racemic) [rac-lmeso-13c]: the values for the IC50 in test [1] (setting [5]) and in test [2] (setting [4]) were 98.8 µM and 3.76 µM, respectively. Besides, the “Selectivity for AChE” value in test [2] (Table II) turned out to be 26.3.

As for `O=c1ccc2c([nH]1)CCCC2NCCCCCCCCCCCCNC1CCCc2[nH]c(=O)ccc21` (racemic) [rac-lmeso-13i], in test [1] (setting [5]), the IC50 is 24.4 µM.

On to `CC1(C)Cc2[nH]c(=O)ccc2C(NCCCCCCCCCNC2CC(C)(C)Cc3[nH]c(=O)ccc32)C1` (racemic) [rac-lmeso-14f], for which the results for the IC50 in test [1] (setting [5]) and in test [2] (setting [4]) were 104 µM and 11.8 µM, respectively. Besides, the “Selectivity for AChE” value in test [2] (Table II) was 8.8.
